SMILES strings stand for the structures.

This is an account of results in ChEMBL document CHEMBL3045977, “Antidiabetic and antioxidant activity of hydroxycinnamic acids from Calamintha Officinalis Moench” (2012).

What all share (format): functional
The test system of experiment [1] is Rattus norvegicus. Briefly: Antidiabetic activity in alloxan-induced diabetic Rattus norvegicus albino Wistar (rat) model assessed as TBRAS level per gram of liver tissue at 10 mg/kg, po administered for 14 days measured after 14 days (reference value: 0.72 +/-0.12 uM/g).
Experiment [2] has as its system Rattus norvegicus. Briefly: Antidiabetic activity in alloxan-induced diabetic Rattus norvegicus albino Wistar (rat) model assessed as change in body weight at 10 mg/kg, po administered for 14 days measured on day 14 (reference value: 190.6 +/-1.78 g).
For experiment [3], the system named is Rattus norvegicus. Nature of the experiment: Antidiabetic activity in alloxan-induced diabetic Rattus norvegicus albino Wistar (rat) model assessed as change in body weight at 10 mg/kg, po administered for 14 days measured on day 1 (reference value: 205.4 +/-2.68 g).
The test system of experiment [4] is Rattus norvegicus. Briefly: Antidiabetic activity in alloxan-induced diabetic Rattus norvegicus albino Wistar (rat) model assessed as reduction in VLDL level at 10 mg/kg, po administered for 14 days measured on day 14 (reference value: 29.9 +/- 0.83 mg/dl).
Experiment [5] relates to Rattus norvegicus. Briefly: Antidiabetic activity in alloxan-induced diabetic Rattus norvegicus albino Wistar (rat) model assessed as reduction in VLDL level at 10 mg/kg, po administered for 14 days measured on day 1 (reference value: 14.4 +/- 1.04 mg/dl).
In experiment [6] the test system is Rattus norvegicus. Nature of the experiment: Antidiabetic activity in alloxan-induced diabetic Rattus norvegicus albino Wistar (rat) model assessed as reduction in LDL level at 10 mg/kg, po administered for 14 days measured on day 14 (reference value: 68.2 +/- 2.10 mg/dl).
For experiment [7], the system named is Rattus norvegicus. Nature of the experiment: Antidiabetic activity in alloxan-induced diabetic Rattus norvegicus albino Wistar (rat) model assessed as reduction in LDL level at 10 mg/kg, po administered for 14 days measured on day 1 (reference value: 52.4 +/- 2.32 mg/dl).
Experiment [8] deals with Rattus norvegicus. Nature of the experiment: Antidiabetic activity in alloxan-induced diabetic Rattus norvegicus albino Wistar (rat) model assessed as reduction in HDL level at 10 mg/kg, po administered for 14 days measured on day 14 (reference value: 36.4 +/- 1.05 mg/dl).
Experiment [9] concerns Rattus norvegicus. Nature of the experiment: Antidiabetic activity in alloxan-induced diabetic Rattus norvegicus albino Wistar (rat) model assessed as reduction in HDL level at 10 mg/kg, po administered for 14 days measured on day 1 (reference value: 40.1 +/- 2.11 mg/dl).
Experiment [10] deals with Rattus norvegicus. Nature of the experiment: Antidiabetic activity in alloxan-induced diabetic Rattus norvegicus albino Wistar (rat) model assessed as reduction in total cholesterol level at 10 mg/kg, po administered for 14 days measured on day 14 (reference value: 131.2 +/- 0.48 mg/dl).
The test system of experiment [11] is Rattus norvegicus. Nature of the experiment: Antidiabetic activity in alloxan-induced diabetic Rattus norvegicus albino Wistar (rat) model assessed as reduction in total cholesterol level at 10 mg/kg, po administered for 14 days measured on day 1 (reference value: 98.6 +/- 0.51 mg/dl).
For experiment [12], the system named is Rattus norvegicus. Nature of the experiment: Antidiabetic activity in alloxan-induced diabetic Rattus norvegicus albino Wistar (rat) model assessed as reduction in triglyceride level at 10 mg/kg, po administered for 14 days measured on day 14 (reference value: 210.8 +/- 1.25 mg/dl).
For experiment [13], the system named is Rattus norvegicus. Briefly: Antidiabetic activity in alloxan-induced diabetic Rattus norvegicus albino Wistar (rat) model assessed as reduction in triglyceride level at 10 mg/kg, po administered for 14 days measured on day 1 (reference value: 158.9 +/- 1.23 mg/dl).
For experiment [14], the system named is Rattus norvegicus. Briefly: Antidiabetic activity in alloxan-induced diabetic Rattus norvegicus albino Wistar (rat) model assessed as reduction in blood glucose level at 10 mg/kg, po administered for 14 days measured on day 14 (reference value: 248.6 +/- 1.20 mg/dl).
Experiment [15] has as its system Rattus norvegicus. Briefly: Antidiabetic activity in alloxan-induced diabetic Rattus norvegicus albino Wistar (rat) model assessed as reduction in blood glucose level at 10 mg/kg, po administered for 14 days measured on day 1 (reference value: 242.2 +/- 0.71 mg/dl).

On to `O=C(O)/C=C/c1ccc(O)c(O)c1` [CAFFEIC ACID], for which the Activity stood at 0.56 µM in the experiment with Rattus norvegicus [1]; 246 g in the experiment on Rattus norvegicus [2]; 209.3 g in the experiment with Rattus norvegicus [3]; 20.9 mg/dL in the experiment with Rattus norvegicus [4]; 15 mg/dL with Rattus norvegicus [5]; 41 mg/dL in the experiment with Rattus norvegicus [6]. For the same compound, the Activity with Rattus norvegicus [7] amounted to 53.7 mg/dL; in the experiment with Rattus norvegicus [8], 41.4 mg/dL; with Rattus norvegicus [9] it was 38.2 mg/dL; in the experiment with Rattus norvegicus [10], 60.6 mg/dL; with Rattus norvegicus [11] it was 101.2 mg/dL; in the experiment with Rattus norvegicus [12], 103.2 mg/dL. For the same compound, the Activity in the experiment with Rattus norvegicus [13] worked out at 160.4 mg/dL; with Rattus norvegicus [14] it was 105.4 mg/dL; in the experiment on Rattus norvegicus [15], 239 mg/dL.
For the compound `COc1ccc(Cl)cc1C(=O)NCCc1ccc(S(=O)(=O)NC(=O)NC2CCCCC2)cc1` [GLYBURIDE], the Activity in the experiment with Rattus norvegicus [1] stood at 0.45 µM; in the experiment with Rattus norvegicus [2], 250.5 g; with Rattus norvegicus [3] it was 207.6 g; with Rattus norvegicus [4], 20.1 mg/dL; in the experiment with Rattus norvegicus [5], 14 mg/dL; in the experiment on Rattus norvegicus [6] it was 36.4 mg/dL. Besides, the Activity in the experiment on Rattus norvegicus [7] was 50 mg/dL; in the experiment with Rattus norvegicus [8], 45.7 mg/dL; in the experiment on Rattus norvegicus [9], 39.7 mg/dL; in the experiment on Rattus norvegicus [10], 58.6 mg/dL; in the experiment on Rattus norvegicus [11] it was 98.1 mg/dL; in the experiment with Rattus norvegicus [12], 102.5 mg/dL. In addition, the figures for the Activity in the experiment on Rattus norvegicus [13], in the experiment with Rattus norvegicus [14] and in the experiment with Rattus norvegicus [15] were 161.6 mg/dL, 115.1 mg/dL and 240 mg/dL, respectively.
`O=C(/C=C/c1ccc(O)c(O)c1)O[C@H](Cc1ccc(O)c(O)c1)C(=O)O` [ROSMARINIC ACID]: the Activity in the experiment on Rattus norvegicus [1] stood at 0.5 µM; in the experiment with Rattus norvegicus [2], 249.5 g; in the experiment on Rattus norvegicus [3] it was 206.8 g; in the experiment with Rattus norvegicus [4], 21.7 mg/dL; in the experiment on Rattus norvegicus [5] it was 14.2 mg/dL; with Rattus norvegicus [6], 42.3 mg/dL. Also, the Activity was found to be 51.3 mg/dL with Rattus norvegicus [7]; 50.2 mg/dL with Rattus norvegicus [8]; 41.2 mg/dL in the experiment with Rattus norvegicus [9]; 57.2 mg/dL in the experiment with Rattus norvegicus [10]; 100.1 mg/dL in the experiment with Rattus norvegicus [11]; 100.5 mg/dL in the experiment with Rattus norvegicus [12]. The Activity in the experiment on Rattus norvegicus [13] was found to be 157.6 mg/dL; in the experiment with Rattus norvegicus [14], 97.3 mg/dL; in the experiment on Rattus norvegicus [15], 244.1 mg/dL.
